Converted amounts (≈) assume the structure as drawn.
Experiment: Solubility comparison at room temperature
Type: physicochemical
Conditions: organic solvent or mixture
Text: Solubility comparison at room temperature (values in mg/l): […]

- solubility (Acetone): 250 µg/mL (≈ 716 µM)
- solubility (Methanol): 125 µg/mL (≈ 358 µM)
Compound: C[C@@H](c1ncncc1F)[C@](O)(Cn1cncn1)c1ccc(F)cc1F [Crystalline Form B, (2R,3S)-2-(2,4-diflurophenyl)-3-(5-fluoropyrimidin-4-yl)-1-(1H-1,2,4-triazol-1-yl) -butan-2-ol]

From patent publication US8039619B2, “Process for preparing (2R,3S/2S,3R)-2-(2,4-difluorophenyl)-3-(5-fluoropyrimidin-4-yl)-1-(1H-1,2,4-triazol-1-yl)butan-2-ol” (Dr. Reddy's Laboratories Limited, priority 2004, dated 2011)
